Measurements from patent publication US20190105340A1, “METHODS AND COMPOSITIONS FOR TARGETING VASCULAR MIMICRY” (New York Genome Center, Inc., priority 2017, published 2019).
“Also recorded” adds a separate entry of the source.

Legend:
[1] = low-dose, IRE1 activation in vivo; cited from earlier work
[2] = system: 4T1-T^VM cells; experiment: polyA+ RNA-Seq of treated cells with GO analysis and GSEA; format: cell-based, mouse
Description: Y axis is log^2 fold change mRNA levels and X axis is the negative log^10 of the corrected p-value. Red points highlight significant changes with a p value below 0.05.
To assess the role of VM as a resistance mechanism in this clinical cohort, we examined whether this Bev resistance gene signature was altered by perturbations that influence VM (FIGS. 9A-9C). […] Thus, co-targeting of VM may enhance response to anti-angiogenic cancer therapies.

[3] = system: 4T1-T^VM cells; experiment: in vitro VM tube assay on Matrigel; format: cell-based, mouse; settings: 4T1-T^VM cells treated directly, plated on Matrigel
Description: FIG. 1G are gel photographs showing the results of an in vitro Matrigel assay for VM. Only VM clones 4T1-E and 4T1-T can form tube structures when plated on Matrigel. All data from ref. 7.
Both SerpinE2 and SLPI are secreted proteins but whether their secretion is necessary for their effects on VM is unknown. To ascertain the importance of intra- vs extracellular localization of SerpinE2 and SLPI, we perform knockdown add-back experiments in which we suppress SerpinE2 or SLPI in 4T1-T^VM cells using shRNAs directed against the 3′ UTR followed by re-expression of HALO-tagged coding sequence constructs (FIG. 2) in which the signal peptide (a necessary signal for secretion) is either present or absent^8. These engineered cell lines then are tested for their ability to form VM tubes in vitro in the Matrigel assay and their ability to form VM channels and metastases in vivo by transplantation into the mammary fat-pad of Balb/C mice.
To ascertain whether regulation of VM underlies these effects of IRE1 on metastasis we turned to the in vitro VM tube assay. Inhibition of IRE1 with two independent small molecule inhibitors of its RNAse activity enhanced VM tubulogenesis while activation of IRE1 with Tunicamycin suppressed VM (FIGS. 4E and F). […]

[4] = system: 4T1-T^VM cells; experiment: plating remaining treated cells in 2D (cell viability); format: cell-based, mouse; settings: remaining treated cells plated in 2D
Description: To ascertain whether regulation of VM underlies these effects of IRE1 on metastasis we turned to the in vitro VM tube assay. Inhibition of IRE1 with two independent small molecule inhibitors of its RNAse activity enhanced VM tubulogenesis while activation of IRE1 with Tunicamycin suppressed VM (FIGS. 4E and F).

[5] = cancer patients; cited from earlier work

Substance	toxicity in vivo [1]	GO analysis of genes significantly down-regulated by Tunicamycin/IRE1 activation and up-regulated by IRE1 inhibition ([2]; DESeq corrected p value<0.05)	GO analysis of genes significantly up-regulated by Tunicamycin/IRE1 activation and down-regulated by IRE1 inhibition ([2]; DESeq corrected p value<0.05)	Bev resistance gene signature (GSEA) ([2]; bevacizumab resistance genes of Mehta et al. in IRE1-regulated expression data)	VM gene signature (GSEA) ([2]; signature from VM clones vs all other clones)	VM tubulogenesis (tube formation) [3]	effects on cell viability [4]	clinical response [5]
Tunicamycin	without apparent toxicity	enriched for regulators of vasculature development and secreted ECM/ECM-affiliated genes	enrichment of terms related to ER stress	globally down-regulated; also recorded: profoundly suppresses	profoundly suppresses	suppressed VM; also recorded: profoundly suppresses VM tubulogenesis	ruled out any demonstrable effects on cell viability	–
Avastin®/bevacizumab: VEGF-blocking antibody (Genentech)	–	–	–	–	–	–	–	most patients showing transient responses followed by inevitable resistance
